In patent US20070117743A1, “New antitumoral compounds” (priority 2003, published 2007):

Legend:
Format in all cases: cell-based, human
[1] = tested on: IGROV-1; assay: SRB colorimetric assay of cell growth and viability, IGROV-1; conditions: 48 hours exposure
Source text: (§1) The finality of this assay is to interrupt the growth of a “in vitro” tumor cell culture by means a continued exhibition of the cells to the sample to be testing.
(§2) This form of the assay employs 96 well cell culture microplates of 9 mm diameter (Faircloth, 1988; Mosmann, 1983). Most of the cell lines are obtained from American Type Culture Collection (ATCC) derived from different human cancer types.
(§3) Cells are maintained in RPMI 1640 10% FBS, supplemented with 0.1 g/l penicillin and 0.1 g/l streptomycin sulfate and then incubated at 37° C., 5% CO2 and 98% humidity. For the experiments, cells were harvested from subconfluent cultures using trypsin and resuspended in fresh medium before plating.
(§4) Cells are seeded in 96 well microtiter plates, at 5×10^3 cells per well in aliquots of 195 μL medium, and they are allowed to attach to the plate surface by growing in drug free medium for 18 hours. Afterward, samples are added in aliquots of 5 μL in a ranging from 10 to 10^−8 μg/mL, dissolved in DMSO:EtOH:PBS (0.5:0.5:99). After 48 hours exposure, the antitumor effect are measured by the SRB methodology: cells are fixed by adding 50 μL of cold 50% (wt/vol) trichloroacetic acid (TCA) and incubating for 60 minutes at 4° C. Plates are washed with deionized water and dried. One hundred μL of SRB solution (0.4% wt/vol in 1% acetic acid) is added to each microtiter well and incubated for 10 minutes at room temperature. Unbound SRB is removed by washing with 1% acetic acid. Plates are air dried and bound stain is solubilized with Tris buffer. Optical densities are read on a automated spectrophotometric plate reader at a single wavelength of 490 nm.
(§5) The values for mean+/− SD of data from triplicate wells are calculated. Some parameters for cellular responses can be calculated: GI=growth inhibition, TGI=total growth inhibition (cytostatic effect) and LC=cell killing (cytotoxic effect).

[2] = tested on: IGROV-ET; assay: SRB colorimetric assay of cell growth and viability, IGROV-ET; conditions: 48 hours exposure; for CC50: read-out: LC50 IGROV-ET
Source text: as §1, §2, §3, §4, §5

[3] = tested on: LoVo; assay: SRB colorimetric assay of cell growth and viability, LoVo; conditions: 48 hours exposure; for CC50: read-out: LC50 LOVO
Source text: as §1, §2, §3, §4, §5

[4] = tested on: SK-MEL-28; assay: SRB colorimetric assay of cell growth and viability, SK-MEL-28; conditions: 48 hours exposure; for CC50: read-out: LC50 MEL-28
Source text: as §1, §2, §3, §4, §5

[5] = tested on: LoVo-Dox; assay: SRB colorimetric assay of cell growth and viability, LoVo-Dox; conditions: 48 hours exposure; for CC50: read-out: LC50 LOVO-DOX
Source text: as §1
A colorimetric type of assay, using sulforhodamine B (SRB) reaction has been adapted for a quantitative measurement of cell growth and viability [following the technique described by Philip Skehan, et al. (1990), New colorimetric cytotoxicity assay for anticancer drug screening, J. Natl. Cancer Inst., 82:1107-1112].
as §2, §3, §4, §5

[6] = tested on: HeLa-APL; assay: SRB colorimetric assay of cell growth and viability, HeLa-APL; conditions: 48 hours exposure; for CC50: read-out: LC50 HELA-APL
Source text: as §1, §2, §3, §4, §5

[7] = tested on: A-549; assay: SRB colorimetric assay of cell growth and viability, A-549; conditions: 48 hours exposure; for GI50: read-out: GI50 A-549; for CC50: read-out: LC50 A-549
Source text: as §1, §2, §3, §4, §5

[8] = tested on: PANC-1; assay: SRB colorimetric assay of cell growth and viability, PANC-1; conditions: 48 hours exposure; for CC50: read-out: LC50 PANC-1
Source text: as §1, §2, §3, §4, §5

[9] = tested on: HeLa; assay: SRB colorimetric assay of cell growth and viability, HeLa; conditions: 48 hours exposure; for CC50: read-out: LC50 HELA
Source text: as §1, §2, §3, §4, §5

[10] = tested on: K-562; assay: SRB colorimetric assay of cell growth and viability, K-562; conditions: 48 hours exposure; for CC50: read-out: LC50 K-562
Source text: as §1, §2, §3, §4, §5

[11] = tested on: HT-29; assay: SRB colorimetric assay of cell growth and viability, HT-29; conditions: 48 hours exposure; for GI50: read-out: GI50 HT-29; for CC50: read-out: LC50 HT-29
Source text: as §1, §2, §3, §4, §5

[12] = tested on: DU-145; assay: SRB colorimetric assay of cell growth and viability, DU-145; conditions: 48 hours exposure
Source text: as §1, §2, §3, §4, §5

With C/C=C1\NC(=O)[C@H](Cc2ccccc2)NC(=O)[C@@H](C(C)C)NC(=O)[C@@H]([C@@H](C)CC)NC(=O)[C@H](NC(=O)[C@H](NC(=O)[C@H](CCCN)NC(=O)[C@H]2CCCN2C(=O)[C@H](NC(=O)[C@@H](NC(=O)[C@@H](NC(=O)[C@@H](CCC(N)=O)NC(=O)CCCC(C)C)[C@@H](C)O)C(C)C)C(C)C)[C@@H](C)CC)[C@@H](C)OC(=O)[C@H](C(C)C)NC1=O [Compound 40, [D-Gln^13]-KF] the GI50 [1] was 1.04 µM, the LC50 (concentration causing 50% net cell killing) [1] was 3.62 µM and the “TGI IGROV” value [1] was 1.94E−06 Molar. The GI50 [2] was 1.31 µM, the “TGI IGROV-ET” value [2] was 2.24E−06 Molar and the CC50 [2] was 3.79 µM. The GI50 [3] was 0.664 µM, the “TGI LOVO” value [3] was 1.41E−06 Molar and the CC50 [3] was 2.98 µM. The GI50 [4] was 1.22 µM, the “TGI MEL-28” value [4] was 2.27E−06 Molar and the CC50 [4] was 4.2 µM. For the same compound, the GI50 [5] was 0.267 µM, the “TGI LOVO-DOX” value [5] was 8.23E−07 Molar and the CC50 [5] was 2.23 µM. For the same compound, the GI50 [6] was 2.28 µM, the “TGI HELA-APL” value [6] was 5.94E−06 Molar and the CC50 [6] was 6.64 µM. The “TGI A-549” value [7] was 7.83E−07 Molar, the GI50 [7] was 0.318 µM and the CC50 [7] was 2.45 µM. For the same compound, the GI50 [8] was 0.13 µM, the “TGI PANC-1” value [8] was 3.01E−07 Molar and the CC50 [8] was 0.863 µM. For the same compound, the GI50 [9] was 0.642 µM, the “TGI HELA” value [9] was 1.58E−06 Molar and the CC50 [9] was 3.86 µM. For the same compound, the GI50 [10] was 1.23 µM, the “TGI K-562” value [10] was 2.34E−06 Molar and the CC50 [10] was 4.42 µM. For the same compound, the “TGI HT-29” value [11] was 1.87E−06 Molar, the GI50 [11] was 0.949 µM and the CC50 [11] was 3.69 µM. For the same compound, the GI50 [12] was 1.79 µM, the LC50 (concentration causing 50% net cell kill) [12] was 5.24 µM and the “TGI DU-145” value [12] was 3.06E−06 Molar.

With C/C=C1\NC(=O)[C@H](Cc2ccccc2)NC(=O)[C@@H](C(C)C)NC(=O)[C@@H]([C@@H](C)CC)NC(=O)[C@H](NC(=O)[C@H](NC(=O)[C@H](CCCN)NC(=O)[C@H]2CCCN2C(=O)[C@H](NC(=O)[C@@H](NC(=O)[C@@H](NC(=O)CNC(=O)CCCC(C)C)[C@@H](C)O)C(C)C)C(C)C)[C@@H](C)CC)[C@@H](C)OC(=O)[C@H](C(C)C)NC1=O [Compound 33, [Gly^13]-KF] the GI50 [1] was 6.96 µM, the LC50 (concentration causing 50% net cell killing) [1] was 6.96 µM and the “TGI IGROV” value [1] was 6.96E−06 Molar. The GI50 [2] was 5.27 µM, the “TGI IGROV-ET” value [2] was 6.96E−06 Molar and the CC50 [2] was 6.96 µM. For the same compound, the GI50 [3] was 3.99 µM, the “TGI LOVO” value [3] was 6.96E−06 Molar and the CC50 [3] was 6.96 µM. The GI50 [4] was 6.32 µM, the “TGI MEL-28” value [4] was 6.96E−06 Molar and the CC50 [4] was 6.96 µM. For the same compound, the GI50 [5] was 4.85 µM, the “TGI LOVO-DOX” value [5] was 6.96E−06 Molar and the CC50 [5] was 6.96 µM. For the same compound, the GI50 [6] was 6.96 µM, the “TGI HELA-APL” value [6] was 6.96E−06 Molar and the CC50 [6] was 6.96 µM. For the same compound, the “TGI A-549” value [7] was 3.08E−06 Molar, the GI50 [7] was 0.982 µM and the CC50 [7] was 6.96 µM. For the same compound, the GI50 [8] was 0.385 µM, the “TGI PANC-1” value [8] was 1.70E−06 Molar and the CC50 [8] was 5.04 µM. For the same compound, the GI50 [9] was 0.954 µM, the “TGI HELA” value [9] was 3.22E−06 Molar and the CC50 [9] was 6.96 µM. For the same compound, the GI50 [10] was 6.96 µM, the “TGI K-562” value [10] was 6.96E−06 Molar and the CC50 [10] was 6.96 µM. For the same compound, the “TGI HT-29” value [11] was 6.96E−06 Molar, the GI50 [11] was 4.51 µM and the CC50 [11] was 6.96 µM. For the same compound, the GI50 [12] was 6.96 µM, the LC50 (concentration causing 50% net cell kill) [12] was 6.96 µM and the “TGI DU-145” value [12] was 6.96E−06 Molar.
